Measurements: patent EP0451422A1, “Pharmaceutically active fluoromethyltyrosine compounds” (MERRELL DOW PHARMACEUTICALS INC., priority 1990, dated 1991)

Target: T1, tyrosine hydroxylase (Mus musculus, UniProt P24529)
T1 construct: from tissue; host or cells: living mice
Experiment: In vivo inhibition of tyrosine hydroxylase (cortical norepinephrine levels in mice, HPLC with electrochemical detection)
Settings: mice injected intraperitoneally; cerebral cortices removed six hours later; norepinephrine in tissue; dose not given; control 198.2 +/- 18.4 ng/g
Protocol: The tyrosine hydroxylase inhibitory properties of the compounds of this invention can readily be determined by standard and well known procedures. For example, determination of tyrosine hydroxylase inhibition is exemplified by a procedure wherein mice are injected intraperitoneally with a test compound, and six hours later the mice are sacrificed, the cerebral cortices removed and frozen on dry ice. The levels of norepinephrine in the tissue are measured by HPLC with electrochemical detection, according to the process of Dudley, et al, J. Pharmacol. Exp. Ther., 217, 834-840 (1981). Reduction in cortical norepinephrine levels indicates effective, in vivo inhibition of tyrosine hydroxylase. The following Table I illustrates the decreased levels of norepinephrine after treatment with a compound of this invention (2-fluoromethyl tyrosine) in relation to levels of norepinephrine present after treatment with a known inhibitor (alpha-methyl-p-tyrosine), and as compared to the amount of norepinephrine produced without treatment with a test compound (control).

T1 sequence (P24529 whole entry): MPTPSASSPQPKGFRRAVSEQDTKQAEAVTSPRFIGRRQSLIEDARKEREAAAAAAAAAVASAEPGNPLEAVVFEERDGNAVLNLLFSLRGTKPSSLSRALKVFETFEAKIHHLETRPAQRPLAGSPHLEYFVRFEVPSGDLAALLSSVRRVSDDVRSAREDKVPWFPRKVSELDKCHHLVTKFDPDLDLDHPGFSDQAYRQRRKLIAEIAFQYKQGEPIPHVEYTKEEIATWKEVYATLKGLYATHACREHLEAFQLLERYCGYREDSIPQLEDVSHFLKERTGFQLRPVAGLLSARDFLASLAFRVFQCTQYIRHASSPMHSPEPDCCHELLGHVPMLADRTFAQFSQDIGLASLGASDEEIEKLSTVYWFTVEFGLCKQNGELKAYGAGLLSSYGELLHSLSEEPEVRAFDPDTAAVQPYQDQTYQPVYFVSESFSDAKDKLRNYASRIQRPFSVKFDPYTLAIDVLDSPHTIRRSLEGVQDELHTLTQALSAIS

Structure (SMILES)	NOREPINEPHRINE
N[C@@H](Cc1ccc(O)cc1CF)C(=O)O [2-fluoromethyl-tyrosine, 2-Fluoromethyltyrosine]	124.9 ± 11.4 ng/g
CC(N)(Cc1ccc(O)cc1)C(=O)O (stereo not drawn) [α-methyl-p-tyrosine]	115.7 ± 18.6 ng/g
